Assay results taken from patent publication US12336981B2, “Compounds and compositions for the inhibition of NAMPT” (Valo Health, Inc., priority 2010, dated 2025).
Where two headings read alike, the source gives them in different places.

Key:
[1] = molecular target: T1, NAMPT (Homo sapiens, UniProt P43490); experiment: Biochemical inhibition assay: NAMPT enzymatic reaction, NMN quantified by mass spectrometry; settings: read-out: Biochem IC50
T1 construct: His tag; host or cells: E. coli
Outline: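 Inhibition of E. coli-expressed His-tagged human NAMPT, measured as NMN formation by mass spectrometry after a 30 min room-temperature reaction containing 1 μM NAM, 100 μM PRPP and 2.5 mM ATP.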

[2] = tested on: A2780 cells; experiment: In-vitro cell proliferation assay (SRB), A2780 cells; type: cell-based; settings: Homo sapiens, A2780, 72 h, A2780 cells, 72 hours, read-out: A2780 IC50
Outline: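 Growth inhibition was derived from background-corrected SRB absorbance (570 nm), measured on cells fixed in 6% TCA after three days of compound treatment under 5% CO2 at 37° C.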

T1 sequence (P43490 whole entry): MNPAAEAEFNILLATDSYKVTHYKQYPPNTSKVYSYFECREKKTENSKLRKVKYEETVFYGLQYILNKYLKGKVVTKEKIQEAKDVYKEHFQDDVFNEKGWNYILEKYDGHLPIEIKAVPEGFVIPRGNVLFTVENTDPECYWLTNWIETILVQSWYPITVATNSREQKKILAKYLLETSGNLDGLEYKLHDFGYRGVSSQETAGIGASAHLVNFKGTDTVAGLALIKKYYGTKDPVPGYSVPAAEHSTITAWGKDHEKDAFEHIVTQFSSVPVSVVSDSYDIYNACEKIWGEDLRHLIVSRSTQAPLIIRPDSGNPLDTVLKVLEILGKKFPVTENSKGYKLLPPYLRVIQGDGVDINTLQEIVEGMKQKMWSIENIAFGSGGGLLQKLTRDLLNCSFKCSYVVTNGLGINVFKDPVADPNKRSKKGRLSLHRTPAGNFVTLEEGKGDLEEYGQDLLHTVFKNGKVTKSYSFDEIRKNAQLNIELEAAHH

| SMILES | IC50 ([1]; NAMPT enzymatic reaction) [nM] | IC50 ([2]; SRB) [nM] | IC50 ([2]; SRB assay) [nM] | IC50 ([1]; NAMPT enzymatic assay) [nM] |
| --- | --- | --- | --- | --- |
| CC(=O)c1cccc(S(=O)(=O)c2ccc(CNC(=O)c3cc4ccncc4o3)cc2)c1 [N-({4-[(3-acetylbenzene)sulfonyl]phenyl}methyl)furo[2,3-c]pyridine-2-carboxamide] | 17.6 | 8 | – | – |
| O=C(NCc1ccc(S(=O)(=O)c2ccc(Cl)c(C(F)(F)F)c2)cc1)c1cc2ccncc2s1 [N-[(4-{[4-chloro-3-(trifluoromethyl)benzene]sulfonyl}phenyl)methyl]thieno[2,3-c]pyridine-2-carboxamide] | 10 | – | 3.4 | – |
| Cc1c(F)cccc1S(=O)(=O)c1ccc(CNC(=O)c2cc3ccncc3o2)cc1 | 13.2 | 30.7 | – | – |
| COc1c(C)cc(S(=O)(=O)c2ccc(CNC(=O)c3cc4ccncc4s3)cc2)cc1C | 9.8 | 0.9 | – | – |
| O=C(NCc1ccc(S(=O)(=O)c2ccc(C(F)(F)F)cc2)cc1)c1cnc2[nH]ncc2c1 [N-[(4-{[4-(trifluoromethyl)benzene]sulfonyl}phenyl)methyl]-1H-pyrazolo[3,4-b]pyridine-5-carboxamide] | – | 19.4 | – | 19.9 |
| Cn1ncc2c(S(=O)(=O)c3ccc(CNC(=O)c4ccc5ncsc5c4)cc3)cccc21 [N-{[4-(1-methyl-1H-indazole-4-sulfonyl)phenyl]methyl}-1,3-benzothiazole-6-carboxamide] | – | 1000 to 10000 | – | 9.8 |
| O=C(NCc1ccc(S(=O)(=O)c2csc(-c3cccc(F)c3)n2)cc1)c1cnc2nccn2c1 [N-({4-[2-(3-fluorophenyl)-1,3-thiazole-4-sulfonyl]phenyl}methyl)imidazo[1,2-a]pyrimidine-6-carboxamide] | – | 6.9 | – | 1 |
| COc1ccc(OC(F)(F)F)cc1S(=O)(=O)c1ccc(CNC(=O)c2cnc3nccn3c2)cc1 | – | 5.8 | – | < 0.65 |
| Cc1cccc(S(=O)(=O)c2ccc(CNC(=O)c3cc4ccncc4s3)cc2)c1 [N-({4-[(3-methylbenzene)sulfonyl]phenyl}methyl)thieno[2,3-c]pyridine-2-carboxamide] | 4 | – | 2.3 | – |
| Cc1ccc(S(=O)(=O)c2ccc(CNC(=O)c3ccc4nccn4c3)cc2)c(F)c1 [N-({4-[(2-fluoro-4-methylbenzene)sulfonyl]phenyl}methyl)imidazo[1,2-a]pyridine-6-carboxamide] | 21.4 | 24.7 | – | – |
| O=C(NCc1ccc(S(=O)(=O)c2cccc3ccsc23)cc1)c1cc2ccncc2o1 [N-{[4-(1-benzothiophene-7-sulfonyl)phenyl]methyl}furo[2,3-c]pyridine-2-carboxamide] | – | 13.9 | – | 4.9 |
| O=C(NCc1ccc(S(=O)(=O)c2cc(Cl)ccc2OCC(F)F)cc1)c1ccc2nccn2c1 | – | 0.3 | – | 2 |
| CCOCc1ccccc1S(=O)(=O)c1ccc(CNC(=O)c2cc3ccncc3o2)cc1 | – | 26 | – | 13.3 |
| COc1cccc(NS(=O)(=O)c2ccc(CNC(=O)c3cc4cnccc4[nH]3)cc2)c1C [N-({4-[(3-methoxy-2-methylphenyl)sulfamoyl]phenyl}methyl)-1H-pyrrolo[3,2-c]pyridine-2-carboxamide] | 30 | – | 6 | – |
| Cc1ccc(S(=O)(=O)c2ccc(CNC(=O)c3cnc4nccn4c3)cc2)cc1C | 1.1 | 1.6 | – | – |
| Cc1ccc(C)c(S(=O)(=O)c2ccc(CNC(=O)c3ccc4nccn4c3)cc2)c1 [N-({4-[(2,5-dimethylbenzene)sulfonyl]phenyl}methyl)imidazo[1,2-a]pyridine-6-carboxamide] | 29.3 | 15.4 | – | – |
| Cn1ncc(S(=O)(=O)c2ccc(CNC(=O)c3cnc4[nH]ncc4c3)cc2)c1C(F)(F)F [N-({4-[1-methyl-5-(trifluoromethyl)-1H-pyrazole-4-sulfonyl]phenyl}methyl)-1H-pyrazolo[3,4-b]pyridine-5-carboxamide] | – | 43.4 | – | 53.4 |
| CCCOc1ccc(Cl)cc1S(=O)(=O)c1ccc(CNC(=O)c2cnc3[nH]ncc3c2)cc1 [N-({4-[(5-chloro-2-propoxybenzene)sulfonyl]phenyl}methyl)-1H-pyrazolo[3,4-b]pyridine-5-carboxamide] | 49.2 | 25.1 | – | – |
| Cc1c(Cl)cccc1S(=O)(=O)c1ccc(CNC(=O)c2cc3cnccc3[nH]2)cc1 | 62.5 | 12 | – | – |
| O=C(NCc1ccc(S(=O)(=O)c2ccnc(N3CCOCC3)c2Cl)cc1)c1cc2ccncc2s1 [N-({4-[3-chloro-2-(morpholin-4-yl)pyridine-4-sulfonyl]phenyl}methyl)thieno[2,3-c]pyridine-2-carboxamide] | – | 1.8 | – | 8.5 |
| COc1ccc(C(C)C)cc1S(=O)(=O)c1ccc(CNC(=O)c2cc3ccncc3o2)cc1 | – | 12.4 | – | 15.4 |
| O=C(NCc1ccc(S(=O)(=O)c2ccc(-c3ccccc3)cc2)cc1)c1cnc2[nH]ncc2c1 | 32 | 11.7 | – | – |

| SMILES | IC50 ([1]; NAMPT enzymatic reaction) [nM] | IC50 ([2]; SRB) [nM] | IC50 ([2]; SRB assay) [nM] | IC50 ([1]; NAMPT enzymatic assay) [nM] |
| --- | --- | --- | --- | --- |
| COc1cc(C)cc(S(=O)(=O)c2ccc(CNC(=O)c3cc4ccncc4s3)cc2)c1OC [N-({4-[(2,3-dimethoxy-5-methylbenzene)sulfonyl]phenyl}methyl)thieno[2,3-c]pyridine-2-carboxamide] | – | 2.7 | – | 6 |
| O=C(NCc1ccc(S(=O)(=O)c2c(Cl)cccc2Cl)cc1)c1cc2cnccc2[nH]1 | 44.7 | 13.5 | – | – |
| Cc1ccc(F)cc1S(=O)(=O)c1ccc(CNC(=O)c2cnc3[nH]ncc3c2)cc1 [N-({4-[(5-fluoro-2-methylbenzene)sulfonyl]phenyl}methyl)-1H-pyrazolo[3,4-b]pyridine-5-carboxamide] | 20.4 | 59.7 | – | – |
| Cc1csc(S(=O)(=O)c2ccc(CNC(=O)c3ccc4nccn4c3)cc2)c1 [N-{[4-(4-methylthiophene-2-sulfonyl)phenyl]methyl}imidazo[1,2-a]pyridine-6-carboxamide] | – | 12.5 | – | 12.4 |
| CCCOc1cccc(S(=O)(=O)c2ccc(CNC(=O)c3cc4ccncc4o3)cc2)c1 | 10.1 | 25.2 | – | – |
| CCCOc1ccc(S(=O)(=O)c2ccc(CNC(=O)c3cc4ccncc4o3)cc2)cc1 | 49.5 | 12 | – | – |
| O=C(NCc1ccc(S(=O)(=O)c2ccc(Cl)c(Cl)c2)cc1)c1cnc2[nH]ncc2c1 [N-({4-[(3,4-dichlorobenzene)sulfonyl]phenyl}methyl)-1H-pyrazolo[3,4-b]pyridine-5-carboxamide] | 6.7 | 5.5 | – | – |
| O=C(NCc1ccc(S(=O)(=O)c2cccc3c2oc2ccccc23)cc1)c1cnc2[nH]ncc2c1 | – | 7.52 | – | 21 |
| COc1ccc(C(C)(C)C)cc1S(=O)(=O)c1ccc(CNC(=O)c2cc3cnccc3[nH]2)cc1 [N-({4-[(5-tert-butyl-2-methoxybenzene)sulfonyl]phenyl}methyl)-1H-pyrrolo[3,2-c]pyridine-2-carboxamide] | 647 | – | 6 | – |
| COc1ccc2cc(S(=O)(=O)c3ccc(CNC(=O)c4cc5ccncc5o4)cc3)ccc2c1 [N-{[4-(6-methoxynaphthalene-2-sulfonyl)phenyl]methyl}furo[2,3-c]pyridine-2-carboxamide] | – | 3.6 | – | 3 |
| O=C(NCc1ccc(S(=O)(=O)c2ccc3c(c2)OCO3)cc1)c1cc2cnccc2[nH]1 [N-{[4-(2H-1,3-benzodioxole-5-sulfonyl)phenyl]methyl}-1H-pyrrolo[3,2-c]pyridine-2-carboxamide] | 8 | – | 7 | – |
| COc1ccc(C(C)C)cc1S(=O)(=O)c1ccc(CNC(=O)c2ccc3nccn3c2)cc1 | – | 6.4 | – | 35.2 |
| O=C(NCc1ccc(S(=O)(=O)c2ccc(OC(F)(F)F)c(F)c2)cc1)c1cc2ccncc2s1 | – | 11.5 | – | 11.5 |
| COc1ccc(S(=O)(=O)c2ccc(CNC(=O)c3cc4ccncc4s3)cc2)cc1Cl [N-({4-[(3-chloro-4-methoxybenzene)sulfonyl]phenyl}methyl)thieno[2,3-c]pyridine-2-carboxamide] | 5 | 1.6 | – | – |
| COc1cc(F)cc(S(=O)(=O)c2ccc(CNC(=O)c3cnc4nccn4c3)cc2)c1 | 1.6 | 3.3 | – | – |
| COc1ccc(F)c(S(=O)(=O)c2ccc(CNC(=O)c3cc4ccncc4o3)cc2)c1 | 26.8 | 63.7 | – | – |
| Cc1ccc(S(=O)(=O)c2ccc(CNC(=O)c3cc4cnccc4[nH]3)cc2)c(F)c1 [N-({4-[(2-fluoro-4-methylbenzene)sulfonyl]phenyl}methyl)-1H-pyrrolo[3,2-c]pyridine-2-carboxamide] | 11 | – | 21 | – |
| CCCOc1ccc(S(=O)(=O)c2ccc(CNC(=O)c3cnc4nccn4c3)cc2)cc1F | 2.7 | 3.3 | – | – |
| O=C(NCc1ccc(S(=O)(=O)c2ccc(F)cc2C(F)(F)F)cc1)c1cnc2[nH]ncc2c1 [N-[(4-{[4-fluoro-2-(trifluoromethyl)benzene]sulfonyl}phenyl)methyl]-1H-pyrazolo[3,4-b]pyridine-5-carboxamide] | – | 109 | – | 112 |
| O=C(NCCc1ccc(S(=O)(=O)c2ccccc2)cc1)c1cc2cnccc2[nH]1 [N-{2-[4-(benzenesulfonyl)phenyl]ethyl}-1H-pyrrolo[3,2-c]pyridine-2-carboxamide] | 410 | – | 9100 | – |
| CCN(C)c1ncc(S(=O)(=O)c2ccc(CNC(=O)c3cc4ccncc4o3)cc2)s1 [N-[(4-{2-[ethyl(methyl)amino]-1,3-thiazole-5-sulfonyl}phenyl)methyl]furo[2,3-c]pyridine-2-carboxamide] | – | 0.9 | – | 4.8 |
| O=C(NCc1ccc(S(=O)(=O)c2cncc(Cl)c2)cc1)c1cc2cnccc2[nH]1 [N-{[4-(5-chloropyridine-3-sulfonyl)phenyl]methyl}-1H-pyrrolo[3,2-c]pyridine-2-carboxamide] | – | 3.6 | – | 20 |
